According to ChEMBL document CHEMBL3988442, “University of Dundee, Small-Polar-MMV Screening Library” (2021):

Tests used:
[1] = microbe, parasite or virus in culture; conditions: Mycobacterium tuberculosis, 96 h, read-out: pIC50 (converted)
[2] = microbe, parasite or virus in culture; conditions: Mycobacterium tuberculosis, 72 h, read-out: pIC50 (converted)

| Structure (SMILES) | IC50 [1] | IC50 [2] |
| --- | --- | --- |
| CCN(CC)CCS(=O)(=O)c1ccccc1 | > 501 µM | 300 µM |
| CCOC(=O)N1CCN(Cc2nc(C3CC3)no2)CC1 | 109 µM | 93.9 µM |
| O=C(c1cscn1)N1CCN(c2ccc(Cl)cn2)CC1 | 249 µM | 116 µM |
| O=C(Nc1ccccn1)C1Cc2ccccc2O1 (stereo not drawn) | 277 µM | 268 µM |
| O=c1c2ccccc2cnn1CN1CCCC1 | > 501 µM | > 501 µM |
| O=S(=O)(CCN1CCC[C@H]1CO)c1ccccc1 | > 501 µM | 198 µM |
| CCCN(CCO)CC(=O)N1CCCC(C)C1 (stereo not drawn) | > 501 µM | > 501 µM |
| CN(Cc1ccc2c(c1)OCO2)C(=O)Cc1cccs1 | 239 µM | 199 µM |
| O=S(=O)(NCc1nccs1)N1CCc2ccccc2C1 | 146 µM | 133 µM |
| COc1cccc(N2CCC(N)C2)c1 (stereo not drawn) | 276 µM | 294 µM |
| Cc1cnn(CCNCc2cccc3c2OCO3)c1 | > 501 µM | 258 µM |
| CN(CC(N)=O)Cc1ccccc1N1CCCC1 | > 501 µM | 278 µM |
| Cc1cccc(C(=O)NCC(C)N2CCCC2)n1 (stereo not drawn) | > 501 µM | 306 µM |
| NCc1cnn(-c2cccc(Cl)c2)c1 | 260 µM | 258 µM |
| NCCc1ccc2cc[nH]c2c1 | > 501 µM | 212 µM |
| COC(=O)C1CC(c2ccccc2)=NO1 (stereo not drawn) | > 501 µM | > 501 µM |
| COc1ncccc1CNS(=O)(=O)c1cccc(Cl)c1 | 311 µM | 230 µM |
| O=C(NCCNC(=O)C1CCCC1)c1ccccc1O | 402 µM | 229 µM |
| CNC(=O)COc1cccc(OCC2CC2)c1 | 188 µM | > 501 µM |
| Oc1cccc(CNc2cccnc2-n2cccn2)c1 | 74.1 µM | 222 µM |
| CC(Nc1ccc(F)cc1)C(=O)N1CCCC1 (stereo not drawn) | 68.6 µM | 106 µM |
| CC(C)(C)c1noc(CCC(=O)N2CCSCC2)n1 | > 501 µM | > 501 µM |

| Structure (SMILES) | IC50 [1] | IC50 [2] |
| --- | --- | --- |
| NC(=O)CCS(=O)(=O)CCN1CCCCCC1 | > 501 µM | 158 µM |
| CCC(C)(C)NC(=O)c1nnn(-c2ccccc2)c1C | 282 µM | 311 µM |
| CN(C)c1ccc(Br)c(S(=O)(=O)NC2CCNC2)c1 (stereo not drawn) | 263 µM | 232 µM |
| CCN(CC)c1ccc(C(=O)Nc2cc[nH]n2)cn1 | > 501 µM | 251 µM |
| CCC1(CC)CCCN(C(=O)CS(=O)(=O)CC)CC1 | 50.9 µM | 72.7 µM |
| O=C(CSc1cnn[nH]1)N1CCc2ccccc2C1 | > 501 µM | > 501 µM |
| COCCN1CCN(CCS(=O)(=O)C(F)(F)F)CC1 | 293 µM | 131 µM |
| CC1(C)Oc2ccc(NC(=O)C3CCOC3)cc2O1 (stereo not drawn) | 261 µM | 289 µM |
| Cc1cc(S(=O)(=O)NC(CN)C2CC2)c(F)cc1F (stereo not drawn) | 18.9 µM | > 501 µM |
| O=C(Nc1ccnc(CO)c1)c1ccc(F)cc1I | 433 µM | 367 µM |
| CN(CC1COc2ccccc2O1)C(=O)C1CCC1 (stereo not drawn) | 173 µM | 182 µM |
| CCN(CCS(=O)(=O)c1ccccc1)CC(=O)N(C)C | 126 µM | 130 µM |
| CCC(C)(C)NC(=O)c1ccn(-c2ccccc2F)n1 | 350 µM | 361 µM |
| O=C(CNCC1CC1)Nc1ccc(F)cc1 | > 501 µM | 215 µM |
| COc1cc(CNC(=O)C(C)OCC(C)C)ccn1 (stereo not drawn) | > 501 µM | > 501 µM |
| NC1CCN(c2ccccc2OC(F)F)C1 (stereo not drawn) | > 501 µM | 135 µM |
| CCOc1cccc(CN(C)S(=O)(=O)c2cccs2)n1 | 191 µM | 144 µM |
| COc1ccc(-c2nc(CCN)co2)cc1 | 71.4 µM | 80.5 µM |
| CC(C)n1ccc(CC(=O)N2CCCC2)n1 | > 501 µM | > 501 µM |
| O=C(CNCC1CC1)Nc1ccccc1 | > 501 µM | 171 µM |
| O=C(CC1C=CCC1)N1CCN(Cc2ccco2)CC1 (stereo not drawn) | 228 µM | 184 µM |
| CN1CCN(S(=O)(=O)N2CCCC2)Cc2ccccc21 | 271 µM | 155 µM |
